Test results: PubChem BioAssay (NCI)
Values joined by “and” are separate entries in the source; they are usually repeats but may differ in a detail not shown here. Equal values may be shown once.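 Tested at 5 concentrations; 48 h exposure; 96-well plates; endpoints linearly interpolated, else capped at highest concentration. GI50 is the concentration that inhibits growth by half. TGI denotes the concentration required for complete inhibition of growth.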

Experiments:
Test in all cases: growth of human tumour cells (NCI), 48 h
[1] = tested on: DU-145 prostate
[2] = tested on: HCC-2998 colon
[3] = tested on: HCT-15 colon
[4] = tested on: HOP-62 NSCLC
[5] = tested on: KM12 colon
[6] = tested on: MDA-N
[7] = tested on: OVCAR-4 ovarian
[8] = tested on: SF-539 CNS
[9] = tested on: SK-OV-3 ovarian
[10] = tested on: U251 CNS

| Compound | GI50 [1] [µM] | TGI [1] [µM] | GI50 [2] [µM] | TGI [2] | GI50 [3] [µM] | TGI [3] [µM] | TGI [4] [µM] | GI50 [5] [µM] | TGI [5] | GI50 [6] [µM] | TGI [6] [µM] | TGI [7] [µM] | GI50 [8] [µM] | TGI [8] [µM] | GI50 [9] [µM] | TGI [9] [µM] | GI50 [10] [µM] | TGI [10] [µM] |
| --- | --- | --- | --- | --- | --- | --- | --- | --- | --- | --- | --- | --- | --- | --- | --- | --- | --- | --- |
| CCCNC1=C2CC(C)CC(OC)[C@@H](O)[C@H](C)/C=C(\C)C(OC(N)=O)C(OC)/C=C\C=C(/C)C(=O)NC(=CC1=O)C2=O (stereo partly drawn) | 14.8 | 65.5 | 0.359 | 3.23 µM and 13.1 µM | 0.46 | 28.1 | 44.4 | 0.0239 | 0.673 µM and 0.727 µM | 0.0757 | 17.1 | > 100 | 0.402 | 18.3 | 0.0747 | > 100 | 29.5 | > 100 |
| CCOC(=O)c1c2ccccc2n2c(N)c(C(N)=O)nnc12 | – | > 100 | – | > 100 µM | – | > 100 | 69.1 | – | > 100 µM | – | > 100 | > 100 | – | 49.8 | – | 37.6 | – | 55.2 |
| O=[N+]([O-])C(=C1NCCN1)/C(Cl)=C(\Cl)Br | – | > 100 | – | > 100 µM | – | 7.93 | > 100 | – | > 100 µM | – | > 100 | > 100 | – | > 100 | – | > 100 | – | > 100 |
| C=C(Br)C(C)(Cl)CCC(Br)C(C)(C)Cl (stereo not drawn) | – | > 100 | – | > 100 µM | – | > 100 | > 100 | – | > 100 µM | – | > 100 | > 100 | – | > 100 | – | > 100 | – | > 100 |
